Measured values reported in patent publication US9169315B2, “Heparin cofactor II fragments with anti-inflammatory and anti-coagulant activity” (XIMMUNE AB, priority 2009, dated 2015).
No end group written: not given here.

How the values were obtained:
S. pyogenes = assay type: cell-based
Protocol: MIC assay was carried out by a microtiter broth dilution method as previously described in the NCSLA guidelines (Wiegand, I., Hilpert, K. & Hancock, R. E. Agar and broth dilution methods to determine the minimal inhibitory concentration (MIC) of antimicrobial substances. Nat Protoc 3, 163-175 (2008)). In brief, fresh overnight colonies were suspended to a turbidity of 0.5 units and further diluted in Mueller-Hinton broth (Becton Dickinson). For determination of MIC, peptides were dissolved in water at concentration 10 times higher than the required range by serial dilutions from a stock solution. Ten μl of each concentration was added to each corresponding well of a 96-well microtiter plate (polypropylene, Costar Corp.) and 90 μl of bacteria (1×10^5) in MH medium added. The plate was incubated at 37° C. for 16-18 h. MIC was taken as the lowest concentration where no visual growth of bacteria was detected.

[1] = Liposome leakage assay (carboxyfluorescein release); conditions: for CF release from liposomes: 10 mM Tris-buffer
Description: The liposomes investigated were anionic (DOPE/DOPG 75/25 mol/mol). DOPG (1,2-Dioleoyl-sn-Glycero-3-Phosphoglycerol, monosodium salt), and DOPE (1,2-dioleoyl-sn-Glycero-3-phoshoetanolamine) were all from Avanti Polar Lipids (Alabaster, USA) and of >99% purity. Due to the long, symmetric and unsaturated acyl chains of these phospholipids, several methodological advantages are reached. In particular, membrane cohesion is good, which facilitates very stable, unilamellar, and largely defect-free liposomes (observed from cryo-TEM) and well defined supported lipid bilayers (observed by ellipsometry and AFM), allowing detailed values on leakage and adsorption density to be obtained. The lipid mixtures were dissolved in chloroform, after which solvent was removed by evaporation under vacuum overnight. Subsequently, 10 mM Tris buffer, pH 7.4, was added together with 0.1 M carboxyfluorescein (CF) (Sigma, St. Louis, USA). After hydration, the lipid mixture was subjected to eight freeze-thaw cycles consisting of freezing in liquid nitrogen and heating to 60° C. Unilamellar liposomes of about Ø140 nm were generated by multiple extrusions through polycarbonate filters (pore size 100 nm) mounted in a LipoFast miniextruder (Avestin, Ottawa, Canada) at 22° C. Untrapped CF was removed by two subsequent gel filtrations (Sephadex G-50, GE Healthcare, Uppsala, Sweden) at 22° C., with Tris buffer as eluent. CF release from the liposomes was determined by monitoring the emitted fluorescence at 520 nm from a liposome dispersion ([…] in 10 mM Tris, pH 7.4). An absolute leakage scale was obtained by disrupting the liposomes at the end of each experiment through addition of 0.8 mM Triton X-100 (Sigma-Aldrich, St. Louis, USA). A SPEX-fluorolog 1650 0.22-m double spectrometer (SPEX Industries, Edison, USA) was used for the liposome leakage assay in Tris buffer in the absence and presence of liposomes under conditions described above. Measurements were performed in triplicate at 37° C.
The liposomes investigated were either zwitterionic (DOPC/cholesterol 60/40 mol/mol or DOPC without cholesterol) or anionic (DOPE/DOPG 75/25 mol/mol). DOPG (1,2-Dioleoyl-sn-Glycero-3-Phosphoglycerol, monosodium salt), DOPC (1,2-dioleoyl-sn-Glycero-3-phoshocholine), and DOPE (1,2-dioleoyl-sn-Glycero-3-phoshoetanolamine) were all from Avanti Polar Lipids (Alabaster, USA) and of >99% purity, while cholesterol (>99% purity), was from Sigma-Aldrich (St. Louis, USA). Due to the long, symmetric and unsaturated acyl chains of these phospholipids, several methodological advantages are reached. […] CF release from the liposomes was determined by monitoring the emitted fluorescence at 520 nm from a liposome dispersion (10 mM lipid in 10 mM Tris, pH 7.4). […]

erythrocytes = assay type: cell-based, human

Sequence | MIC (S. pyogenes) [µM] | Time within which ~80% of the maximal CF release occurred [1] [min] | CF release from liposomes [1] | Hemolytic activity (erythrocytes)
NLFRKLTHRLFRRNFGYTLR [NLF20] | 2.5 | 5 to 10 | caused CF release | hemolytic activities at higher doses (30-60 μM)
KYEITTIHNLFRKLTHRLFRR [KYE21] |  | 5 to 10 | caused CF release | 
KYEITTIHNLFRKLTHRLFRRNFGYTLR [KYE28] | 10 |  |  | significant hemolytic activities at higher doses (30-60 μM)
